Measurements taken from patent publication US8575158B2, “1-phenyl-substituted heterocyclyl derivatives and their use as prostaglandin D2 receptor modulators” (Actelion Pharmaceuticals Ltd., priority 2010, dated 2013).

Target: T1, hCRTH2 receptor (Homo sapiens, UniProt Q9Y5Y4)
T1 construct: expressed in transfected cells; host or cells: HEK293
T1 sequence (Q9Y5Y4 1-395): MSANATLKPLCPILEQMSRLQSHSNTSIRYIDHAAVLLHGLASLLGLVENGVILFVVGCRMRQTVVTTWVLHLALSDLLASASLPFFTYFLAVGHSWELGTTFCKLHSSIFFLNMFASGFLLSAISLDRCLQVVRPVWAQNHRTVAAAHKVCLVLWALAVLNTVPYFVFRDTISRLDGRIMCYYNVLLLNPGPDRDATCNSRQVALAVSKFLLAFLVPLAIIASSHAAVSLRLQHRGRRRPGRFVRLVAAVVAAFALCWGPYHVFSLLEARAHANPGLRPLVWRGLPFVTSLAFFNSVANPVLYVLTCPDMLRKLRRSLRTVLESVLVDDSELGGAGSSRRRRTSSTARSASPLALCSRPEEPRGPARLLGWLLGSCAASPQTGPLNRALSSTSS
Experiment: Radioligand displacement assay (3H-PGD2) on hCRTH2 receptor membranes
Format: binding
Details: antagonistic activity

[1] = 3H-PGD2 displacement on HEK293-hCRTH2 membrane fragments
[2] = 3H-PGD2 radioligand displacement, HEK293-hCRTH2 membranes

Compound	IC50 [1]	IC50 [2]	other results
O=C(O)COc1ccc(F)cc1C1c2cccc(C(F)(F)F)c2CCN1C(=O)OCc1ccccc1 (racemic) [Example 12, (±)-1-(2-Carboxymethoxy-5-fluoro-phenyl)-5-trifluoromethyl-3,4-dihydro-1H-isoquinoline-2-carboxylic acid benzyl ester]	4.59 nM	–	–
Cc1ccccc1CCC(=O)N1CCc2ccccc2C1c1cc(Cl)ccc1OCC(=O)O (racemic) [Example 104, (±)-{4-Chloro-2-[2-(3-o-tolyl-propionyl)-1,2,3,4-tetrahydro-isoquinolin-1-yl]-phenoxy}-acetic acid]	28.6 nM	–	–
O=C(O)COc1ccc(Cl)cc1C1c2ccccc2CCN1C(=O)CCn1ccc2ccccc21 (racemic) [Example 378]	–	11.6 nM	–
O=C(O)COc1ccc(Cl)cc1C1c2ccccc2CCN1C(=O)Cc1csc2ccc(Cl)cc12 (racemic) [Example 98, (±)-(4-Chloro-2-{2-[2-(5-chloro-benzo[b]thiophen-3-yl)-acetyl]-1,2,3,4-tetrahydro-isoquinolin-1-yl}-phenoxy)-acetic acid]	124 nM	–	–
Cc1c(C)n(CCC(=O)N2CCc3ccccc3C2c2cc(Cl)ccc2OCC(=O)O)c2ccccc12 (racemic) [Example 389]	–	70.4 nM	–
O=C(O)COc1ccc(F)cc1C1c2ccccc2CCN1C(=O)NCCc1ccccc1 (racemic) [Example 200]	31 nM	–	–
O=C(O)COc1ccc(Cl)cc1C1c2cccc(F)c2CCN1C(=O)OCc1ccccc1Cl (racemic) [Example 175]	8.75 nM	–	–
O=C(O)COc1ccc(F)cc1C1c2ccccc2CCN1C(=O)CNS(=O)(=O)c1ccccc1F (racemic) [Example 208]	983 nM	–	–
O=C(O)COc1ccc(Cl)cc1C1c2ccccc2CCN1C(=O)[C@@H]1C[C@H]1c1ccccc1C(F)(F)F (mixture of isomers) [Example 423]	–	6.62 nM	–
Cc1conc1COC(=O)N1CCc2c(ccc(F)c2F)[C@H]1c1cc(Cl)ccc1OCC(=O)O [Example 306, (S)-1-(2-Carboxymethoxy-5-chloro-phenyl)-5,6-difluoro-3,4-dihydro-1H-isoquinoline-2-carboxylic acid 4-methyl-isoxazol-3-ylmethyl ester]	–	3.12 nM	–
O=C(O)COc1ccc(Cl)cc1C1c2ccccc2CCN1C(=O)Cn1cnc2ccccc21 (racemic) [Example 78, (±)-{2-[2-(2-Benzoimidazol-1-yl-acetyl)-1,2,3,4-tetrahydro-isoquinolin-1-yl]-4-chloro-phenoxy}-acetic acid]	51.1 nM	–	–
O=C(O)COc1ccc(F)cc1C1c2ccccc2CCN1C(=O)Cn1ccc2ccccc21 (racemic) [Example 61, (±)-{4-Fluoro-2-[2-(2-indol-1-yl-acetyl)-1,2,3,4-tetrahydro-isoquinolin-1-yl]-phenoxy}-acetic acid]	846 nM	–	–
Cc1ncsc1CCOC(=O)N1CCc2ccccc2[C@H]1c1cc(Cl)ccc1OCC(=O)O [Example 274, (S)-1-(2-Carboxymethoxy-5-chloro-phenyl)-3,4-dihydro-1H-isoquinoline-2-carboxylic acid 2-(4-methyl-thiazol-5-yl)-ethyl ester]	2.42 nM	–	–
O=C(O)COc1ccc(F)cc1C1c2ccccc2CCN1C(=O)CNS(=O)(=O)c1ccc(F)c(F)c1 (racemic) [Example 209]	644 nM	–	–
COc1ccc2[nH]cc(CCC(=O)N3CCc4ccccc4C3c3cc(Cl)ccc3OCC(=O)O)c2c1 (racemic) [Example 74, (±)-(4-Chloro-2-{2-[3-(5-methoxy-1H-indol-3-yl)-propionyl]-1,2,3,4-tetrahydro-isoquinolin-1-yl}-phenoxy)-acetic acid]	1.42 nM	–	–
COc1cccc(COC(=O)N2CCc3ccccc3C2c2cc(Cl)ccc2OCC(=O)O)c1 (racemic) [Example 237]	4.02 nM	–	–
O=C(O)COc1ccc(Cl)cc1C1c2ccc(F)cc2CCN1C(=O)[C@@H]1C[C@H]1c1ccccc1 (mixture of isomers) [Example 428]	–	1.33 nM	–
COc1ccc2[nH]cc(CCC(=O)N3Cc4ccccc4C3c3cc(Cl)ccc3OCC(=O)O)c2c1 (racemic) [Example 511]	–	14.8 nM	–
COc1ccc2[nH]cc(CCC(=O)N3CCc4cc(F)ccc4C3c3cc(Cl)ccc3OCC(=O)O)c2c1 (racemic) [Example 433]	–	90.1 nM	–
O=C(O)COc1ccc(F)cc1C1c2ccccc2CCN1C(=O)COCc1ccccc1 (racemic) [Example 126, (±)-{2-[2-(2-Benzyloxy-acetyl)-1,2,3,4-tetrahydro-isoquinolin-1-yl]-4-fluoro-phenoxy}-acetic acid]	20 nM	–	–
O=C(O)COc1ccc(Cl)cc1C1c2ccccc2CCN1C(=O)[C@@H]1C[C@H]1c1ccccc1Cl (relative stereo) [Example 82, (4-Chloro-2-{2-[trans-2-(2-chloro-phenyl)-cyclopropanecarbonyl]-1,2,3,4-tetrahydro-isoquinolin-1-yl}-phenoxy)-acetic acid]	4.8 nM	–	–

Compound	IC50 [1]	IC50 [2]	other results
O=C(O)COc1ccc(Cl)cc1C1c2ccccc2CN1C(=O)CCc1cccnc1 (racemic) [Example 505]	–	189 nM	–
O=C(O)COc1ccc(Cl)cc1C1c2ccccc2CCN1C(=O)CCn1ccc2ncc(Cl)nc21 (racemic) [Example 404]	–	42.6 nM	–
O=C(O)COc1ccc(Cl)cc1C1c2ccccc2CCN1C(=O)OCc1ccccc1F (racemic) [Example 234]	3.61 nM	–	–
O=C(O)COc1ccc(F)cc1C1c2cccc(Br)c2CCN1C(=O)OCc1ccccc1 (racemic) [Example 7, (±)-5-Bromo-1-(2-carboxymethoxy-5-fluoro-phenyl)-3,4-dihydro-1H-isoquinoline-2-carboxylic acid benzyl ester]	7.9 nM	–	–
O=C(O)COc1ccc(F)cc1C1c2ccccc2CCN1C(=O)[C@@H]1C[C@H]1c1ccccc1 (mixture of isomers) [Example 67, (±)-{4-Fluoro-2-[2-(trans-2-phenyl-cyclopropanecarbonyl)-1,2,3,4-tetrahydro-isoquinolin-1-yl]-phenoxy}-acetic acid]	15.5 nM	–	–
O=C(O)COc1ccc(Cl)cc1C1c2cccc(F)c2CN1C(=O)OCc1ccccc1 (racemic) [Example 501]	–	8.12 nM	–
O=C(O)COc1ccc(Cl)cc1C1c2cccc(F)c2CCN1C(=O)CCCc1ccccc1 (racemic) [Example 121, (±)-{4-Chloro-2-[5-fluoro-2-(4-phenyl-butyryl)-1,2,3,4-tetrahydro-isoquinolin-1-yl]-phenoxy}-acetic acid]	52.3 nM	–	–
Cc1csc(COC(=O)N2CCc3cc(F)ccc3[C@H]2c2cc(Cl)ccc2OCC(=O)O)n1 [Example 327, (S)-1-(2-Carboxymethoxy-5-chloro-phenyl)-6-fluoro-3,4-dihydro-1H-isoquinoline-2-carboxylic acid 4-methyl-thiazol-2-ylmethyl ester]	–	3.38 nM	–
Cc1cc(COC(=O)N2CCc3cc(F)ccc3[C@H]2c2cc(Cl)ccc2OCC(=O)O)n(C)n1 [Example 338, (S)-1-(2-Carboxymethoxy-5-chloro-phenyl)-6-fluoro-3,4-dihydro-1H-isoquinoline-2-carboxylic acid 2,5-dimethyl-2H-pyrazol-3-ylmethyl ester]	–	3.13 nM	–
Cc1ccc(COC(=O)N2CCc3ccccc3C2c2cc(Cl)ccc2OCC(=O)O)c(C)c1 (racemic) [Example 245]	2.87 nM	–	–
O=C(O)COc1ccc(F)cc1C1c2ccccc2CCN1C(=O)Cc1nc2ccccc2[nH]1 (racemic) [Example 62]	794 nM	–	–
O=C(O)COc1ccc(Cl)cc1[C@@H]1c2ccccc2CCN1C(=O)[C@@H]1C[C@H]1c1cccc(Cl)c1 [Example 564, (4-Chloro-2-{(S)-2-[(1R,2R)-2-(3-chloro-phenyl)-cyclopropanecarbonyl]-1,2,3,4-tetrahydro-isoquinolin-1-yl}-phenoxy)-acetic acid]	–	–	IC50 (radioligand displacement (3H-PGD2), hCRTH2 receptor membranes): 4.29 nM
Cc1cnc(COC(=O)N2CCc3ccccc3[C@H]2c2cc(Cl)ccc2OCC(=O)O)s1 [Example 275, (S)-1-(2-Carboxymethoxy-5-chloro-phenyl)-3,4-dihydro-1H-isoquinoline-2-carboxylic acid 5-methyl-thiazol-2-ylmethyl ester]	5.01 nM	–	–
Cc1csc(=O)n1CCC(=O)N1CCc2ccccc2C1c1cc(Cl)ccc1OCC(=O)O (racemic) [Example 452]	–	500 nM	–
COCCOC(=O)N1CCc2ccccc2C1c1cc(Cl)ccc1OCC(=O)O (racemic) [Example 267]	21.2 nM	–	–
O=C(O)COc1cccc(F)c1C1c2ccccc2CCN1C(=O)OCc1ccccc1 (racemic) [Example 216, (±)-1-(2-Carboxymethoxy-6-fluoro-phenyl)-3,4-dihydro-1H-isoquinoline-2-carboxylic acid benzyl ester]	182 nM	–	–
CC(C)[C@@H]1C[C@H]1C(=O)N1CCc2ccccc2[C@H]1c1cc(Cl)ccc1OCC(=O)O (single isomer, unassigned) [Example 465]	–	53.5 nM	–
O=C(O)COc1ccc(Cl)cc1C1c2ccccc2CCN1C(=O)CCn1c(C(F)(F)F)cc2ccccc21 (racemic) [Example 405]	–	451 nM	–
O=C(O)COc1ccc(Cl)cc1C1c2ccccc2CCN1C(=O)NCc1ccc(F)cc1 (racemic) [Example 494]	–	17 nM	–
O=C(O)COc1ccc(Cl)cc1C1c2ccccc2CCN1C(=O)CCn1ccc2ccncc21 (racemic) [Example 372]	–	596 nM	–
O=C(O)COc1ccc(F)cc1C1c2ccccc2CCN1C(=O)CN1Cc2ccccc2C1 (racemic) [Example 63, (±)-{2-[2-(2-1,3-Dihydro-isoindol-2-yl-acetyl)-1,2,3,4-tetrahydro-isoquinolin-1-yl]-4-fluoro-phenoxy}-acetic acid]	871 nM	–	–
